The values that follow come from patent US20150051202A1, “TRIAZOLOPYRAZINE DERIVATIVES” (Merck Patent GmbH, priority 2012, published 2015).

Experiment [1] deals with GCN2 (Homo sapiens, UniProt Q9P2K8). Nature of the experiment: GCN2 enzyme assay (TR-FRET Lanthascreen, GFP-eIF2alpha substrate). It is filed as biochemical. A digest of the protocol: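 GCN2 (30 nM) incubated at room temperature with 10 μM ATP and 80 nM GFP-eIF2alpha in 50 mM Hepes pH 7.0, 10 mM MgCl2, 5 mM MnCl2, 2 mM DTT, 0.1% BSA, 1% DMSO. Reaction stopped with EDTA; phospho-eIF2alpha detected by antibody TR-FRET, excitation 340 nm.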
On the technique in general: Time-resolved FRET reads energy transfer from a long-lived donor to a nearby acceptor.

The target in experiment [2] is T1, SYK (Homo sapiens, UniProt P43405).
T1 construct: purchased BPS Bioscience, CA, USA
Nature of the experiment: SYK enzyme assay (Flash plate assay / Caliper mobility shift assay). It is filed as biochemical. The method in brief: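 Flashplate: 2.5 nM SYK, 400 nM biotinylated peptide and 10 μM ATP with 33P-ATP, pH 7.5, 1 h at 30 °C, EDTA stop, radioactivity read, background with 0.1 μM staurosporine. Caliper: 90 min at 25 °C in HEPES pH 7.5, 1 mM MgCl2, 1 mM DTT, mobility-shift percent conversion of fluorescent peptide. IC50 from dose-response in both.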

Where [3] appears, read: 100% corresponds to zero effect, −50% corresponds to IC50.

Bounds are passed on as bounds.

GCN2, sequence (Q9P2K8 whole entry): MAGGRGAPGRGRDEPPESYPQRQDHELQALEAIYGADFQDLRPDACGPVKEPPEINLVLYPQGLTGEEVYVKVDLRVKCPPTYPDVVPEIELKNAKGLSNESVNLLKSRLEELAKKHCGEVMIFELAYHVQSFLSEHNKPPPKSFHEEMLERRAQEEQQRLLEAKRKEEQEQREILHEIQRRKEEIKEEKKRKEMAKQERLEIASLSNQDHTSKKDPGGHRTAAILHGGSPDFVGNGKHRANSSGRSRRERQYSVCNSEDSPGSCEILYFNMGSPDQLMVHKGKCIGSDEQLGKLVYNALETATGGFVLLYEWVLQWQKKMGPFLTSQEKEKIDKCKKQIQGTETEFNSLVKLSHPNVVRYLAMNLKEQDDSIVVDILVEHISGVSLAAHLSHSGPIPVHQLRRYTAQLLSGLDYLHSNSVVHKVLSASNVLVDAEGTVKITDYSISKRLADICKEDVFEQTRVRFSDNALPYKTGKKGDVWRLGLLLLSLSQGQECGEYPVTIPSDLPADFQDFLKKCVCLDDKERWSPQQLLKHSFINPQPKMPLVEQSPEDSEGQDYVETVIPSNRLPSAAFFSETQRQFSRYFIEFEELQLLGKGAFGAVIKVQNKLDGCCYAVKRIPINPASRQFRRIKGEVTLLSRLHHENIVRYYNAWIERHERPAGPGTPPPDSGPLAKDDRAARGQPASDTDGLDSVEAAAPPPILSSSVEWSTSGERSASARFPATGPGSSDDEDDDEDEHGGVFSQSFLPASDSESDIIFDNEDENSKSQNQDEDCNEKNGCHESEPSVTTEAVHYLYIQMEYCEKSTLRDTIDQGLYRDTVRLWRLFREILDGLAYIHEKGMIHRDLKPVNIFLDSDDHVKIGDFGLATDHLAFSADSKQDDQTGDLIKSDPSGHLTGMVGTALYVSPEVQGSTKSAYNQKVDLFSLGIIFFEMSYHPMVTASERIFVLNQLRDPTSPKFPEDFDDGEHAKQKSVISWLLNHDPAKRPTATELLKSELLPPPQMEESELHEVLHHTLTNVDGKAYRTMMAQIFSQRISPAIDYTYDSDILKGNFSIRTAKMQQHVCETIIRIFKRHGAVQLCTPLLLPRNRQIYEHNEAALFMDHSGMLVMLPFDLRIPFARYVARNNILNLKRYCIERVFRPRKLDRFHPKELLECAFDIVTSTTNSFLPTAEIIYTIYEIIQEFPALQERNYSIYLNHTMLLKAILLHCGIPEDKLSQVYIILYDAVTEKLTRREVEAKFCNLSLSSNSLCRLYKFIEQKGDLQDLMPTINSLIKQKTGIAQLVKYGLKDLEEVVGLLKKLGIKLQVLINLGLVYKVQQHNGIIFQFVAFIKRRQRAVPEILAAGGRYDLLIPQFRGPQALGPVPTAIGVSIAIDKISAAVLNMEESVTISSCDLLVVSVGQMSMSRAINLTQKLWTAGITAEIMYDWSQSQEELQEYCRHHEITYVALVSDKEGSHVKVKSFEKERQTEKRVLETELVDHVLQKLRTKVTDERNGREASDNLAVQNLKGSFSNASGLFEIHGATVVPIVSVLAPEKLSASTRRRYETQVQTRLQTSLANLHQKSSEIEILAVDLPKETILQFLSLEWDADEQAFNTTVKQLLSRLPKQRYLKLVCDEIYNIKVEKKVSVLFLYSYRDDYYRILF

One may read the IC50 as the concentration that inhibits the measured activity by half. `COc1cc(Nc2nc3cncc(-c4cnn(C)c4)n3n2)ccc1C(=O)NCC1CC1` [Compound A70, N-cyclopropylmethyl-2-methoxy-4-[5-(1-methyl-1H-pyrazol-4-yl)-[1,2,4]triazolo[1,5-a]pyrazin-2-ylamino]-benzamide] had a concentration for half-maximal inhibition (IC50) in experiment [1] of under 1000 nM. Also, the “SYK (enzyme assay) % at 0.3 μM” value in experiment [2] (at 0.3 μM, 100% corresponds to zero effect, −50% corresponds to IC50) is reported as −12@0.3%.
`Cc1cc(Nc2nc3cncc(-c4cnn(C)c4)n3n2)ccc1C(=O)NC1CC1` [Compound A71, N-cyclopropyl-2-methyl-4-[5-(1-methyl-1H-pyrazol-4-yl)-[1,2,4]triazolo[1,5-a]pyrazin-2-ylamino]-benzamide]: the IC50 in experiment [1] is under 1000 nM; in experiment [2], 1000 to 5000 nM.
As for `COc1cc(Nc2nc3cncc(-c4cnn(C)c4)n3n2)ccc1C(=O)NC1CC1` [Compound A72, N-cyclopropyl-2-methoxy-4-[5-(1-methyl-1H-pyrazol-4-yl)-[1,2,4]triazolo[1,5-a]pyrazin-2-ylamino]-benzamide], the concentration for half-maximal inhibition (IC50) in experiment [1] was under 1000 nM; in experiment [2], 5000 to 10000 nM.
For `Cc1cc(Nc2nc3cncc(-c4cnn(C)c4)n3n2)ccc1C(=O)N1CCOCC1` [Compound A73, {2-methyl-4-[5-(1-methyl-1H-pyrazol-4-yl)-[1,2,4]triazolo[1,5-a]pyrazin-2-ylamino]-phenyl}-morpholin-4-yl-methanone] the same measures were under 1000 nM and 1000 to 5000 nM.
Regarding `Cn1cc(-c2cncc3nc(NC(=O)C4CCNCC4)nn23)cn1` [Compound A74, piperidine-4-carboxylic acid [5-(1-methyl-1H-pyrazol-4-yl)-[1,2,4]triazolo[1,5-a]pyrazin-2-yl]-amide], the 50% inhibitory concentration (IC50) in experiment [1] lay within 5000 to 10000 nM. For the same compound, the “SYK (enzyme assay) % at 3 μM” value in experiment [2] (setting [3]) is listed as 4@3%.
On the same counts, the results for `COc1cc(Nc2nc3cncc(-c4cnn(CCN5CCOCC5)c4)n3n2)ccc1N1CCN(C)CC1` [Compound A75, [3-methoxy-4-(4-methyl-piperazin-1-yl)-phenyl]-{5-[1-(2-morpholin-4-yl-ethyl)-1H-pyrazol-4-yl]-[1,2,4]triazolo[1,5-a]pyrazin-2-yl}-amine] are under 1000 nM and −21@3%.
As for `COc1cc(Nc2nc3cncc(-c4cnn(CCC(C)C)c4)n3n2)ccc1N1CCN(C)CC1` [Compound A76, [3-methoxy-4-(4-methyl-piperazin-1-yl)-phenyl]-{5-[1-(3-methyl-butyl)-1H-pyrazol-4-yl]-[1,2,4]triazolo[1,5-a]pyrazin-2-yl}-amine], the figures for the IC50 in experiment [1] and in experiment [2] were under 1000 nM and 1000 to 5000 nM, respectively.
On the same counts, the results for `COc1cc(Nc2nc3cncc(-c4cnn(C5CCOCC5)c4)n3n2)ccc1N1CCN(C)CC1` [Compound A77, [3-methoxy-4-(4-methyl-piperazin-1-yl)-phenyl]-{5-[1-(tetrahydro-pyran-4-yl)-1H-pyrazol-4-yl]-[1,2,4]triazolo[1,5-a]pyrazin-2-yl}-amine] are under 1000 nM and 1000 to 5000 nM.
For `COc1cc(Nc2nc3cncc(-c4cnn(C)c4)n3n2)ccc1CN1CCOCC1` [Compound A78, (3-methoxy-4-morpholin-4-ylmethyl-phenyl)-[5-(1-methyl-1H-pyrazol-4-yl)-[1,2,4]triazolo[1,5-a]pyrazin-2-yl]-amine] the same measures were under 1000 nM and 1000 to 5000 nM.
`COc1cc(N2CCN(C)CC2)ccc1Nc1nc2cncc(-c3cnn(C)c3)n2n1` [Compound A79, [2-methoxy-4-(4-methyl-piperazin-1-yl)-phenyl]-[5-(1-methyl-1H-pyrazol-4-yl)-[1,2,4]triazolo[1,5-a]pyrazin-2-yl]-amine]: in experiment [1], the IC50 lay within 5000 to 10000 nM. In experiment [2] (setting [3]), the “SYK (enzyme assay) % at 3 μM” value is listed as −9@3%.
Regarding `Cn1cc(-c2cncc3nc(Nc4cccc(N5CCOCC5)c4)nn23)cn1` [Compound A80, [5-(1-methyl-1H-pyrazol-4-yl)-[1,2,4]triazolo[1,5-a]pyrazin-2-yl]-(3-morpholin-4-yl-phenyl)-amine], the IC50 in experiment [1] was under 1000 nM. In experiment [2] (at 1 μM, 100% corresponds to zero effect, −50% corresponds to IC50), the “SYK (enzyme assay) % at 1 μM” value is recorded as −26@1%.
Take `CC(=O)Nc1ccc(Nc2nc3cncc(-c4cnn(C)c4)n3n2)cc1C` [Compound A81, N-{2-methyl-4-[5-(1-methyl-1H-pyrazol-4-yl)-[1,2,4]triazolo[1,5-a]pyrazin-2-ylamino]-phenyl}-acetamide]: the concentration for half-maximal inhibition (IC50) in experiment [1] is under 1000 nM; in experiment [2], 1000 to 5000 nM.
`Cc1cc(Nc2nc3cncc(-c4cnn(C)c4)n3n2)ccc1NC(=O)C1CCNCC1` [Compound A82, piperidine-4-carboxylic acid {2-methyl-4-[5-(1-methyl-1H-pyrazol-4-yl)-[1,2,4]triazolo[1,5-a]pyrazin-2-ylamino]-phenyl}-amide]: the IC50 in experiment [1] is under 1000 nM; in experiment [2], 1000 to 5000 nM.
For `Cc1cc(Nc2nc3cncc(-c4cnn(C)c4)n3n2)ccc1NC(=O)C1CCOCC1` [Compound A83, tetrahydro-pyran-4-carboxylic acid {2-methyl-4-[5-(1-methyl-1H-pyrazol-4-yl)-[1,2,4]triazolo[1,5-a]pyrazin-2-ylamino]-phenyl}-amide], the IC50 in experiment [1] is under 1000 nM; in experiment [2] it was 5000 to 10000 nM.
Consider `COc1cc(Nc2nc3cncc(-c4cnn(C)c4)n3n2)ccc1NC(=O)C1CCNCC1` [Compound A84, piperidine-4-carboxylic acid {2-methoxy-4-[5-(1-methyl-1H-pyrazol-4-yl)-[1,2,4]triazolo[1,5-a]pyrazin-2-ylamino]-phenyl}-amide], for which the IC50 in experiment [1] is under 1000 nM; in experiment [2], 5000 to 10000 nM.
For `COc1cc(Nc2nc3cncc(-c4cnn(C)c4)n3n2)ccc1NC(C)=O` [Compound A85, N-{2-methoxy-4-[5-(1-methyl-1H-pyrazol-4-yl)-[1,2,4]triazolo[1,5-a]pyrazin-2-ylamino]-phenyl}-acetamide] the same measures were under 1000 nM and 1000 to 5000 nM.
`COc1cc(Nc2nc3cncc(-c4cccc(O)c4)n3n2)ccc1N1CCN(C)CC1` [Compound A86, 3-{2-[3-methoxy-4-(4-methyl-piperazin-1-yl)-phenylamino]-[1,2,4]triazolo[1,5-a]pyrazin-5-yl}-phenol]: the IC50 in experiment [1] and in experiment [2] was under 1000 nM throughout.
For the compound `COc1cc(Nc2nc3cncc(-c4ccc(O)cc4)n3n2)ccc1N1CCN(C)CC1` [Compound A87, 4-{2-[3-methoxy-4-(4-methyl-piperazin-1-yl)-phenylamino]-[1,2,4]triazolo[1,5-a]pyrazin-5-yl}-phenol], the half-maximal inhibitory concentration (IC50) in experiment [1] and in experiment [2] was under 1000 nM in each case.
On to `CN1CCN(c2ncc(Nc3nc4cncc(-c5cnn(C)c5)n4n3)cn2)CC1` [Compound A88, [2-(4-methyl-piperazin-1-yl)-pyrimidin-5-yl]-[5-(1-methyl-1H-pyrazol-4-yl)-[1,2,4]triazolo[1,5-a]pyrazin-2-yl]-amine], for which the half-inhibitory concentration (IC50) in experiment [1] is under 1000 nM. Further, the “SYK (enzyme assay) % at 3 μM” value in experiment [2] (setting [3]) is −13@3%.
In the case of `COc1cc(Nc2nc3cncc(-c4cnn(C)c4)n3n2)ccc1NC(=O)C1CCOCC1` [Compound A89, tetrahydro-pyran-4-carboxylic acid {2-methoxy-4-[5-(1-methyl-1H-pyrazol-4-yl)-[1,2,4]triazolo[1,5-a]pyrazin-2-ylamino]-phenyl}-amide], the IC50 in experiment [1] is under 1000 nM; in experiment [2], 5000 to 10000 nM.
For `COc1cc(Nc2nc3cncc(-c4ccc(N5CCOCC5)cc4)n3n2)ccc1N1CCN(C)CC1` [Compound A91, [3-methoxy-4-(4-methyl-piperazin-1-yl)-phenyl]-[5-(4-morpholin-4-yl-phenyl)-[1,2,4]triazolo[1,5-a]pyrazin-2-yl]-amine] the same measures were under 1000 nM and 1000 to 5000 nM.
As to `COc1ccc(-c2cncc3nc(Nc4ccc(N5CCN(C)CC5)c(OC)c4)nn23)cc1` [Compound A92, [3-methoxy-4-(4-methyl-piperazin-1-yl)-phenyl]-[5-(4-methoxy-phenyl)-[1,2,4]triazolo[1,5-a]pyrazin-2-yl]-amine], the 50% inhibitory concentration (IC50) in experiment [1] and in experiment [2] was under 1000 nM in each case.
In the case of `COc1cc(Nc2nc3cncc(-c4ccc(NS(C)(=O)=O)cc4)n3n2)ccc1N1CCN(C)CC1` [Compound A93, N-(4-{2-[3-methoxy-4-(4-methyl-piperazin-1-yl)-phenylamino]-[1,2,4]triazolo[1,5-a]pyrazin-5-yl}-phenyl)-methanesulfonamide], the IC50 is under 1000 nM in experiment [1] and 1000 to 5000 nM in experiment [2].
On the same counts, the results for `CNS(=O)(=O)c1ccc(-c2cncc3nc(Nc4ccc(N5CCN(C)CC5)c(OC)c4)nn23)cc1` [Compound A94, 4-{2-[3-methoxy-4-(4-methyl-piperazin-1-yl)-phenylamino]-[1,2,4]triazolo[1,5-a]pyrazin-5-yl}-N-methyl-benzenesulfonamide] are under 1000 nM and 1000 to 5000 nM.
Consider `COc1cc(Nc2nc3cncc(-c4cccc(NS(C)(=O)=O)c4)n3n2)ccc1N1CCN(C)CC1` [Compound A95, N-(3-{2-[3-methoxy-4-(4-methyl-piperazin-1-yl)-phenylamino]-[1,2,4]triazolo[1,5-a]pyrazin-5-yl}-phenyl)-methanesulfonamide], for which the 50% inhibitory concentration (IC50) is under 1000 nM in experiment [1] and 1000 to 5000 nM in experiment [2].
